Patent US12343335B2, “Pharmaceutical composition for treating multiple sclerosis on basis of AMPK inhibitory function and zinc homeostasis control function” (ZINCURE CORP., priority 2019, dated 2025)

Columns and labels:
[1] = test system: cortical neurons of the cultured mice; test: Zinc toxicity in cortical neurons, cell viability assay (Cell Counting Kit-8); format: cell-based, mouse; settings: ZnCl2 400 μM for 10 minutes, compound 20 μM
Procedure: (§1) The mouse cortical neurons used in the present invention were extracted from the brain of a mouse embryo, and cultured in Dulbecco's modified Eagle's medium (DMEM, Gibco, Grand Island, NY, US) supplemented with 5% fetal bovine serum (FBS) and 5% horse serum (HS) under the condition of 95% humidity, 5% CO2 and 37° C. For activation and differentiation of the cells, the cells were grown to a density of 2×10^4 cells in a 24-well tissue culture plate and cultured in MEM medium without FBS and HS before treatment with zinc and compounds.
According to an embodiment of the present invention, based on the structural similarity of 1H10 of the present invention, 25 similar compounds having a similar structure were purchased from a compound library manufacturer (InterBioScreen, Russia; Akos, Germany). Then, in order to induce zinc toxicity in the cortical neurons of the cultured mice, ZnCl2 (400 μM) was treated for 10 minutes, and after 12.5 hours, the selected 25 compounds and the previously selected drug 1H10 were treated (20 μM) and it was determined whether cell death was inhibited through cell viability assay (Cell Counting Kit-8, Dojindo).

[2] = test system: mouse cortical neurons; test: Oxidative stress by H2O2 in cortical neurons, LDH analysis; format: cell-based; settings: H2O2 100 μM about 4 hours, compound 20 μM
Procedure: as §1
(§2) The present inventors investigated the inhibitory effect against oxidative stress in addition to zinc toxicity for the eight drugs and 1H10 of the above examples. Specifically, oxidative damage induced neurotoxicity by treating mouse cortical neurons with H2O2 (100 μM) and FeCl2 (100 μM) for about 4 hours and 20 hours, respectively, and treatment with the 8 selected drugs and 1H10 (20 μM). Thereafter, cytotoxicity was observed through LDH (Lactate Dehydrogenase) analysis.

[3] = test system: mouse cortical neurons; test: Excitotoxicity by NMDA in cortical neurons; format: cell-based; settings: NMDA 50 μM for 3 hours
Procedure: as §1
The present inventors investigated the inhibitory effect against excitotoxicity of the eight drugs and 1H10 of the above examples. Specifically, excitotoxicity was induced by treatment with NMDA (N-methyl-D-aspartate, 50 μM) in mouse cortical neurons for 3 hours.

[4] = test system: mouse cortical neurons; test: Apoptosis by etoposide (ETPS) in cortical neurons, LDH cytotoxicity; format: cell-based; settings: etoposide 10 μM for 20 hours, compound 20 μM
Procedure: as §1
The present inventors investigated the inhibitory effect against neuronal cell death of the eight drugs and 1H10 of the above examples. Specifically, neurotoxicity due to apoptosis was induced by treatment with etoposide (ETPS, 10 μM) in mouse cortical neurons for 20 hours. Then, the selected 8 drugs and 1H10 were treated (20 μM) and LDH cytotoxicity was observed.

[5] = test system: mouse cortical neuron culture; test: Intrinsic toxicity in cortical neuron culture, LDH cytotoxicity; format: cell-based; settings: 40 μM; for intrinsic toxicity in words: 48 hours of drug treatment
Procedure: as §1
Specifically, 40 μM of each of the drugs was treated in a mouse cortical neuron culture, and LDH cytotoxicity was observed after 24 or 48 hours.

[6] = test system: mouse cortical neurons; test: Oxidative damage by iron (FeCl2) in cortical neurons, LDH analysis; format: cell-based; settings: FeCl2 100 μM about 20 hours, compound 20 μM
Procedure: as §1, §2

[7] = Zinc chelation in a test tube with FluoZin-3; format: binding; settings: 1 μM zinc, 5 μM FluoZin-3, compared with 1H10
Procedure: The present inventors treated FluoZin-3, a substance illuminate fluorescence if it bind to free zinc to cultivated neurons in order to verify the possibility of zinc chelation according to the treatment of 1H10 {(Z)-5-((1H-indol-3-yl)methylene)-2-((3-hydroxyphenyl)amino)thiazol-4(5H)-one} according to an embodiment of the present invention, and then measured cytosolic zinc level in the neurons for 60 min after exposing zinc (300 μM) for 15 minutes and removing the zinc. In addition, 20 μM zinc (ZnCl2) and NewPort Green DCF fluorophore, which emits fluorescence when it bind to zinc, were added to the test tube, and 1H10 of the present invention was treated at various concentrations. Clioquinol, a zinc chelator, and calcium ionophore Phosphorus ionomycin was used as controls.
In addition, after reacting various concentrations of (0, 0.5, 1, 2, 5, 10, 20, 40 μM) 1H10 or clioquinol with 1 μM zinc and 5 μM fluorescent labeled drug for free zinc (FluoZin-3) in a test tube and fluorescence values were measured. […] 1H10 of the present invention binds zinc even at a lower concentration than clioquinol, but at a high concentration, zinc binding strength is considered to be lower than that of clioquinol (FIG. 5B).

[8] = test system: EAE; settings: zinc chelator administrated to EAE animals; cited from earlier work

Row | SMILES | neuroprotective effect against zinc toxicity (cell viability) [1] | inhibition of H2O2 toxicity (LDH) [2] | inhibition of excitotoxicity caused by NMDA [3] | inhibitory effect against ETPS toxicity (LDH) [4] | intrinsic toxicity in words [5] | intrinsic toxicity compared with 1H10 ([5]; 24 or 48 hours (time not specified)) | inhibition of oxidative damage caused by iron (LDH) [6] | final FluoZin-3 fluorescence value [7] | T cell infiltration that cause encephalitis [8] | demyelination and microglia activity in EAE [8]
1 | Cc1ccc(NC2=NC(=O)/C(=C/c3c[nH]c4ccccc34)S2)cc1C [4B01, (5Z)-2-[(3,4-Dimethylphenyl)amino]-5-(1H-indol-3-ylmethylene)-1,3-thiazol-4(5H)-one] | neuroprotective effect | significantly inhibit | significantly inhibited | significant inhibitory effect | stronger intrinsic toxicity than 1H10 | – | – | – | – | –
2 | Cc1cccc(NC2=NC(=O)/C(=C/c3c[nH]c4ccccc34)S2)c1C [4B04, (5Z)-2-[(2,3-Dimethylphenyl)amino]-5-(1H-indol-3-ylmethylene)-1,3-thiazol-4(5H)-one] | neuroprotective effect | significantly inhibit | – | – | – | – | – | – | – | –
3 | CCCCc1ccc(NC2=NC(=O)/C(=C/c3c[nH]c4ccccc34)S2)cc1 [4C01, (Z)-5-((1H-indol-3-yl)methylene)-2-((4-butylphenyl)amino)thiazol-4(5H)-one] | neuroprotective effect | significantly inhibit | significantly inhibited | significant inhibitory effect | – | insignificant difference from 1H10 | – | – | – | –
4 | Cc1ccc(/N=C2\NC(=O)/C(=C/c3c(C)[nH]c4ccccc34)S2)cc1 [4C03, (2E,5Z)-5-((2-methyl-1H-indol-3-yl)methylene)-2-(p-tolylimino)thiazolidin-4-one] | neuroprotective effect | significantly inhibit | significantly inhibited | – | – | – | – | – | – | –
5 | Cc1ccc(/N=C2/NC(=O)/C(=C\c3c(C)[nH]c4ccccc34)S2)cc1 [4C04, (2Z,5E)-5-((2-methyl-1H-indol-3-yl)methylene)-2-(p-tolylimino)thiazolidin-4-one] | neuroprotective effect | significantly inhibit | significantly inhibited | – | – | – | – | – | – | –
6 | O=C1N=C(Nc2ccccc2C(=O)O)S/C1=C/c1c[nH]c2ccccc12 [4C06, (E)-2-((5-((1H-indol-3-yl)methylene)-4-oxo-4,5-dihydrothiazol-2-yl)amino)benzoic acid] | neuroprotective effect | – | – | significant inhibitory effect | – | – | – | – | – | –
7 | O=C1N=C(Nc2ccc(O)c(C(=O)O)c2)S/C1=C\c1c[nH]c2ccccc12 [4C08, (Z)-5-((5-((1H-indol-3-yl)methylene)-4-oxo-4,5-dihydrothiazol-2-yl)amino)-2-hydroxy benzoic acid] | neuroprotective effect | – | significantly inhibited | significant inhibitory effect | did not show intrinsic toxicity | – | inhibited | – | – | –
8 | Oc1c(I)cc(Cl)c2cccnc12 [clioquinol] | – | – | – | – | – | – | – | lower | inhibitored | reduced
